Here are results for 1 molecule from patent publication US20180118707A1, “BETA-NAPHTHOISOFLAVONES, COMPOSITIONS CONTAINING, AND USES OF, SAME” (Thesan Pharmaceuticals, Inc., priority 2015, published 2018).

For series [1], the system named is CYP1A1 enzyme. Put plainly: Induction of CYP1A1 enzyme in HepG2 cells, EROD assay. It counts as cell-based, human. Particulars: 10 uM, 24 h. Here is the method: (§1) The formation of resorufin is quantified by fluorometry with a fluorescence plate reader. Fluorescence is determined at λex 570 nm and λem 590 nm. The amount of resorufin is calculated from a standard curve generated using 0 to 1 μM resorufin in water at ½ log dilutions. The remaining (i.e. all cells present at the beginning of analysis, since only supernatant is taken to assay EROD) live cells are subsequently utilized for the MIT cytotoxicity assay. MTT is made up in serum-free medium at 5 mg/ml. then added to the cells giving a final concentration of 10% (0.5 mg/ml MTT final) then incubated for 2 h. The medium is carefully removed, then MTT formazan is solubilized by adding 200 μl of DMSO and subsequently mixed on a plate shaker. The absorbance is measured spectra photometrically at 550 nm and background absorbance at 690 nm is subtracted. A standard curve generated using MIT formazan (dissolved in DMSO) from O—200 μM (0, 2, 5, 10, 20, 50, 100, 200 μM) is used to calculate the final experimental values which are then expressed as (wnol resarufin/mol MTT formazan) or as fold-Induction compared to solvent.

Series [2] deals with CYP1A1. The series is described as above. It counts as cell-based, human. To be noted: human, probe 7-ethoxyresorufin (8 μM). Here is the method: as §1

Structures are written as SMILES.

A word on the EC50: it is the concentration giving half of the maximal effect. A low value points to greater potency. On to `O=c1cc(-c2ccccc2)oc2ccc3ccccc3c12` [D, 3-Phenyl-1H-benzo[f]chromen-1-one, reference compound], for which the “% change vs. TCDD EROD (HepG2) at 10 uM” value in series [1] is 19%. This molecule displayed an EC50 at 24 h in series [2] of 1000 nM.
